Columns and labels:
human TLR4 = target: T1, human TLR4 (Homo sapiens, UniProt O00206); assay type: cell-based
T1 construct: host or cells: HEK 293

[1] = tested on: morphine analgesia in rats; experiment: Potentiation of intrathecal morphine analgesia, Hargreaves test; assay type: in vivo, rat; conditions: about 20 μg co-administered with morphine intrathecally, FIG. 6B

T1 sequence (O00206 24-839): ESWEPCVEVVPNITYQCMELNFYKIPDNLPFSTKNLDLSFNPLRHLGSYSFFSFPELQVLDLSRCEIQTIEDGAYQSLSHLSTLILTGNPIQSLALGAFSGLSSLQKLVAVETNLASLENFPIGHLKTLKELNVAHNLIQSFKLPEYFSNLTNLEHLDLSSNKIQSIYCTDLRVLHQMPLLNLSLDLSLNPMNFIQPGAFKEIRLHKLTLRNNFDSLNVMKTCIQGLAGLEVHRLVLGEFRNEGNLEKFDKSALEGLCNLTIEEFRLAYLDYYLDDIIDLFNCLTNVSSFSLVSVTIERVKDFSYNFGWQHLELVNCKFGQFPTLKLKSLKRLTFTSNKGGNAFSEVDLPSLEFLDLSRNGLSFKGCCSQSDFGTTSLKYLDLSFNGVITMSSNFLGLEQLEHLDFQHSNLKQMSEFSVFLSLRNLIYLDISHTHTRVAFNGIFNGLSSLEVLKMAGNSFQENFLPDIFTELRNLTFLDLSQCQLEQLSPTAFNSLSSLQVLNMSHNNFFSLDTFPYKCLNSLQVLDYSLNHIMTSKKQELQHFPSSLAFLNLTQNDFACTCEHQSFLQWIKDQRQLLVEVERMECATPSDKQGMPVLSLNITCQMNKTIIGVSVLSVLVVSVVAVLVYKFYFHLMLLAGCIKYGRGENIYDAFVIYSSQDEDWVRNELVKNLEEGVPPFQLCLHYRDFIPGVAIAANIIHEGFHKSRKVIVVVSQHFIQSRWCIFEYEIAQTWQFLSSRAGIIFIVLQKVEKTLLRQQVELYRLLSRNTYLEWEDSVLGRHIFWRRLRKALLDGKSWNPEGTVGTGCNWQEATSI
T1 sequence (Q9Y6Y9 17-160 partner limits assumed): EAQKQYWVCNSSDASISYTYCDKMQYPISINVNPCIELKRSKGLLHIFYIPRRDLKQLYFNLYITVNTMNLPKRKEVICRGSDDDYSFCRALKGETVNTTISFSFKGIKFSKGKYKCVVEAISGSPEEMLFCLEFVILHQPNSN

SMILES | TLR4 agonism (human TLR4) | potentiation of morphine analgesia [1]
CCOC(=O)C1(c2ccccc2)CCN(C)CC1 [pethadine/meperidine] | TLR4 agonists | –
CN1CC[C@]23c4c5ccc(O)c4O[C@H]2[C@@H](O)C=C[C@H]3[C@H]1C5 [morphine] | TLR4 agonists | –
O=c1c(O)c(-c2ccc(O)c(O)c2)oc2cc(O)cc(O)c12 [quercetin] | – | significant potentiation
COc1ccc2c3c1O[C@H]1C(=O)CC[C@@]4(O)[C@@H](C2)N(C)CC[C@]314 [oxycodone] | TLR4 agonists | –
CCC(=O)C(CC(C)N(C)C)(c1ccccc1)c1ccccc1 (centres unmarked) [methadone] | TLR4 agonists | –
